Experimental data reported in US20090137565A1, “Method for treatment of movement disorders” (The Trustees of Columbia University in the City of New York, priority 2004, published 2009).

Experiments:
[1] = Single-patient GHB trial: tolerability / adverse events; format: in vivo, human
Procedure: All office visits and the UMRS scale were performed by the supervisory physician. The patient came to the office for five visits, each separated by two weeks (time 0, 2 weeks, 4 weeks, 6 weeks and 8 weeks). At each visit, the physician examined the patient, and inquired about any adverse events. The physician performed the UMRS while the patient was videotaped. Xyrem® was dispensed by the physician at each visit.
At the initial visit the UMRS was performed and videotaped, 1 gm of GHB was administered by mouth, and they were monitored in the office for one hour. They then took 1 gm twice daily for two weeks, at which time they returned to the office. One hour after receiving 2 grams of GHB, the UMRS was performed and videotaped and for the next two weeks they took 2 grams twice daily. Two weeks later, the UMRS was performed and videotaped one hour after receiving 3 grams of GHB, and after two weeks of 3 grams twice daily, the same procedure was performed after receiving 4 grams in the office. After taking 4 grams twice daily for two weeks, they returned for UMRS videotaping, and the decision was made to continue the target dose of 4 gm twice daily.
The clinical trial was designed with a very slow titration schedule, in order to prevent possible side effects such as sedation, worsening of ataxia or orthostasis. Like most forms of myoclonus, posthypoxic myoclonus disappears during sleep and it is therefore necessary to administer the drug during waking hours in order to observe its effects.

[2] = test system: medication-refractory, ethanol-responsive myoclonus (PHM, MD, PME); assay: Twenty-patient open-label trial of sodium oxybate, blinded UMRS (myoclonus patients); format: in vivo, human; conditions: for Stim-sens. myoclonus score: dose 0 score 5.8; for Functional performance score: dose 0 score 12.9; for Action myoclonus score: dose 0 score 45.3; for Myoclonus at rest score: dose 0 score 7.4
Description: (§1) Twenty patients age 18 or older were recruited from a clinical practice at the Movement Disorders Division of Columbia University Medical Center. Eligible patients with medication-refractory, ethanol-responsive myoclonus (6 PHM, 3 MD, 2 PME) or ET (9 patients) (Table 1) were offered enrollment from February 2004 to March 2005. The medical center's institutional review board approved the protocol, and written informed consent was obtained from all participants. All had myoclonus or ET that improved (by self-report) with ingestion of ethanol. All patients were medication-refractory, defined as obtaining inadequate benefit from best medical treatment or being unable to tolerate treatment. The dose and timing of other medications were kept constant before and during the trial.
(§2) Twelve men and 8 women enrolled. Results from patients #6, and #s 1, 2, 7, 12, and 13 were reported previously. Frucht, S. J., et al. Mov Disord 20:745-51 (2005); Frucht, S. J., et al. Mov Disord 20:1330-7 (2005). Mean age/symptom duration was 43.9 yrs/12.3 yrs (myoclonus) and 71.2 yrs/26.7 yrs (ET). Patients with myoclonus were examined and videotaped at each visit using the Unified Myoclonus Rating Scale (UMRS), and patients with ET were examined and videotaped using the modified Washington Heights Inwood Genetic Essential Tremor Rating Scale (WHIGET; Appendix 1). Frucht, S. J., et al. Mov Disord 20:1330-7 (2005). After initial baseline examination and videotaping, patients took 1 gm of sodium oxybate by mouth (2 ml of the standard 0.5 gm/ml solution dissolved in 60 ml of water), and one hour later the videotaped examination was repeated. Patients were maintained on a dose of 1 gm T.I.D. (taken before meals) until their next office visit two weeks later, when the examination and videotaping were repeated one hour after receiving 1.5 gm of sodium oxybate. Subsequent visits and dose titrations at two-week intervals were repeated until the maximum dose was reached (3 gm T.I.D), patients were satisfied with the results of treatment, or until they developed side effects that they viewed as troublesome. Dosing for patients #1, 2, 6, 7, 12, and 13 was slightly different (1 gm BID, with dose increments of 2 gm to maximum dose of 4 gm BID), but office visits and videotaping protocol were otherwise identical.
(§3) The entire videotape segments and writing samples from each visit were copied and randomly ordered, and identifying features that might reveal trial order or drug dose were removed. A blinded movement disorder neurologist scored each videotape segment using the UMRS or the WHIGET. Sub-scores for each visit were calculated as described previously. Frucht, S. J., et al. Mov Disord 20:1330-7 (2005). Based on data from the first two ET cases, and assuming alpha=0.05, power=80%, and a 25% reduction in post-treatment tremor severity, we calculated that eight ET cases were required. A similar number of myoclonus patients would provide >80% power to detect a 25% reduction in the severity of post-treatment action myoclonus. Paired t tests were performed for scores pre- and post-treatment.

[3] = test system: medication-refractory, ethanol-responsive ET; assay: Twenty-patient open-label trial of sodium oxybate, blinded WHIGET (ET patients); format: in vivo, human; conditions: for Kinetic tremor score: dose 0 score 15.4; for Postural tremor score: dose 0 score 2.4
Description: as §1, §2, §3

[4] = test system: alcohol-responsive myoclonus with dystonia; conditions: single patient, recently reported; cited from earlier work
[5] = metabolized to carbon dioxide and water; cited from earlier work

For O=C([O-])CCCO.[Na+] [GHB, 4-hydroxybutanoic acid monosodium salt], the “adverse effect reported by patient” value ([1]; after the first 1 gm dose) was “slight dizziness”, the tolerability ([1]; divided doses during the day) was “well tolerated” and the sedation ([1]; two daytime doses of 4 gm, concurrent clonazepam and levetiracetam) was “without significant sedation”. The Stim-sens. myoclonus score ([2]; 1 gm, p 0.01**) was 3.2 (0.01)**, the Functional performance score ([2]; 1 gm, p 0.044*) was 11.0 (0.044)* and the Action myoclonus score ([2]; 1 gm, p 0.047*) was 33.4 (0.047)*. For the same molecule, the Functional performance score ([2]; 1.5 gm, p 0.007*) was 9.6 (0.007)*, the Stim-sens. myoclonus score ([2]; 1.5 gm, p 0.11) was 3.2 (0.11) and the Action myoclonus score ([2]; 1.5 gm, p 0.122) was 26.8 (0.122). The “Myoclonus at rest score” value ([2]; 1.5 gm, p 0.247) was 1.2 (0.247), the Stim-sens. myoclonus score ([2]; 2 gm, p 0.001**) was 2.8 (0.001)** and the Action myoclonus score ([2]; 2 gm, p 0.005*) was 30.9 (0.005)*. For the same molecule, the “Myoclonus at rest score” value ([2]; 2 gm, p 0.047*) was 3.6 (0.047)*, the Functional performance score ([2]; 2 gm, p <0.001**) was 6.0 (<0.001)** and the Functional performance score ([2]; 2.5 gm, p 0.002**) was 7.4 (0.002)**. The Action myoclonus score ([2]; 2.5 gm, p 0.046*) was 26.2 (0.046)*, the “Myoclonus at rest score” value ([2]; 2.5 gm, p 0.055) was 0.6 (0.055) and the Stim-sens. myoclonus score ([2]; 2.5 gm, p <0.001**) was 1.4 (<0.001)**. For the same molecule, the Stim-sens. myoclonus score ([2]; 3.0 gm, p 0.02*) was 1.0 (0.02)*, the Functional performance score ([2]; 3.0 gm, p 0.059) was 6.9 (0.059) and the Action myoclonus score ([2]; 3.0 gm, p 0.064) was 33.0 (0.064). The “Myoclonus at rest score” value ([2]; 3.0 gm, p 0.129) was 0.75 (0.129), the “Myoclonus at rest score” value ([2]; individ. dose 1 gm, p 0.137 vs pre-treatment) was 4.9 (0.137) and the “dose of maximal improvement” value ([2]; myoclonus measures) was 2.5 gm. For the same molecule, the Myoclonus at rest ([2]; patient #3 (MD), after receiving 3 mg (so in the source)) was “disappeared”, the “stimulus-sensitive myoclonus to sound and pinprick” value ([2]; patient #4 (PME), after 3 gm) was “only stimulus-sensitive myoclonus of the right hand remained” and the “action myoclonus on finger-to-nose” value ([2]; patient #6 (PHM), standing unassisted now possible) was “significantly improved”. For the same molecule, the Myoclonus at rest ([2]; patient #11 (PHM), after receiving 2.5 mg (so in the source)) was “disappeared”, the “functional performance, using a soupspoon” value ([2]; patients #9 (PHM) and #5 (PME)) was “improved” and the Kinetic tremor score ([3]; 1 gm, p 0.011*) was 11.5 (0.011)*. For the same molecule, the Postural tremor score ([3]; 1 gm, p 0.029*) was 1.7 (0.029)*, the Postural tremor score ([3]; 1.5 gm, p 0.001**) was 1.1 (0.001)** and the Kinetic tremor score ([3]; 1.5 gm, p 0.006**) was 8.8 (0.006)**. For the same molecule, the Postural tremor score ([3]; 2 gm, p 0.006**) was 1.4 (0.006)**, the Kinetic tremor score ([3]; 2 gm, p 0.006**) was 9.1 (0.006)** and the “dose of maximal improvement” value ([3]; ET, postural and kinetic tremor scores) was 1.5 gm. For the same molecule, the “time at which improvement in action tremor during pouring was evident” value ([3]; patient #15 (ET), after 1.5 gm) was 45 min, the “time at which improvement in action tremor during pouring was obvious” value ([3]; patient #15 (ET), after 1.5 gm) was 60 min and the “kinetic tremor during tasks (drawing, sipping water from spoon)” value ([3]; patient #17 (ET), FIG. 4) was “Improvement in kinetic tremor during tasks was evident”. The effect on myoclonus [4] was “improved myoclonus” and the active metabolites [5] was “has no active metabolites”.
